Measurements taken from patent publication US10287269B2, “Pyrazolyl pyrimidinone compounds as PDE2 inhibitors” (Merck Sharp & Dohme Corp., priority 2015, dated 2019).

The compounds below were run against T1, Rhesus PDE2A3 (Macaca mulatta, UniProt B3VTJ2) (assay: PDE2 fluorescence polarization (IMAP FP) inhibition assay, rhesus enzyme). Settings: Lab A; read-out: Rhesus PDE2 Ki (nM) Lab A.
T1 construct: made in house; host or cells: AD293 cells, transient transfection, pcDNA3.3-TOPO; lysate supernatant used as enzyme
T1 sequence (B3VTJ2 1-941): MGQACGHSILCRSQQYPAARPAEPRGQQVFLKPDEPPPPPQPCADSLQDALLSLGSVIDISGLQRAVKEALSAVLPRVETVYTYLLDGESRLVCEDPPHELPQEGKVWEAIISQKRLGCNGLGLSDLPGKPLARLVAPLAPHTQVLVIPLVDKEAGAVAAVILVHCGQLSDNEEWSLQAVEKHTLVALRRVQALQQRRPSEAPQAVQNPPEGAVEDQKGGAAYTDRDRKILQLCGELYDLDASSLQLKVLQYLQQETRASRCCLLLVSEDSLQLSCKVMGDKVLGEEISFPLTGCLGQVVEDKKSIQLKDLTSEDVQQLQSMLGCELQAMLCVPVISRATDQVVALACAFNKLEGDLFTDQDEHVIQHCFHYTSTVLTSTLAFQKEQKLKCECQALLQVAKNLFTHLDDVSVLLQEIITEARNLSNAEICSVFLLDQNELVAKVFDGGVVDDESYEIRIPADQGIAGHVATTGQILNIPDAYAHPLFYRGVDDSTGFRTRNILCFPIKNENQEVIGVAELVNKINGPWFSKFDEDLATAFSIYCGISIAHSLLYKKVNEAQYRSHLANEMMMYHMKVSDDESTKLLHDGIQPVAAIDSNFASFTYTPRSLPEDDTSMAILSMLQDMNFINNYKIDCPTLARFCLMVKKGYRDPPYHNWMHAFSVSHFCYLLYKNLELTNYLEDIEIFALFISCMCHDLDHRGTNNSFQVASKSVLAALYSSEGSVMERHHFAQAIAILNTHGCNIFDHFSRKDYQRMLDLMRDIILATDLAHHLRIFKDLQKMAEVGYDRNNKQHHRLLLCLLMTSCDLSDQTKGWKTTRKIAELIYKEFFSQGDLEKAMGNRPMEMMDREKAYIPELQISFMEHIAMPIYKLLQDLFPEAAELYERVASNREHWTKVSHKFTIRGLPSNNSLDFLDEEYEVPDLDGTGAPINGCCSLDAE
Type: biochemical, rhesus macaque
Experimental: The activity of the compounds in accordance with the present invention as PDE2 inhibitors may be readily determined using a fluorescence polarization (FP) methodology (Huang, W., et al., J. Biomol Screen, 2002, 7: 215).
In a typical experiment the PDE2 inhibitory activity of the compounds of the present invention was determined in accordance with the following experimental method. Rhesus PDE2A3 was amplified from rhesus macaque brain cDNA (Biochain Institute, Hayward, Calif.) using primers based on human PDE2A sequence (accession NM_002599.3) where the forward primer containing a Kozak consensus was 5′-[…]-3′ and the reverse primer was 5′-[…]-3′. Amplification with Easy-A High-Fidelity PCR cloning enzyme (Stratagene, La Jolla, Calif.) was 95° C. for 2 minutes followed by thirty three cycles of 95° C. for 40 seconds, 52° C. for 30 seconds, and 72° C. for 2 minutes 48 seconds. Final extension was 72° C. for 7 minutes. The PCR product was TA cloned into pcDNA3.3-TOPO (Invitrogen, Carlsbad, Calif.) according to standard protocol. A consensus sequence was developed from multiple clones and then deposited into GenBank (EU812167). AD293 cells (Stratagene, La Jolla, Calif.) with 70-80% confluency were transiently transfected with rhesus PDE2A3/pcDNA3.3-TOPO using Lipofectamine 2000 according to manufacturer specifications (Invitrogen, Carlsbad, Calif.). Cells were harvested 48 hours post-transfection and lysed by sonication (setting 3, 10×5 sec pulses) in a buffer containing 20 mM HEPES pH 7.4, 1 mM EDTA and Complete Protease Inhibitor Cocktail Tablets (Roche, Indianapolis, Ind.). Lysate was collected by centrifugation at 75,000×g for 20 minutes at 4° C. and supernatant utilized for evaluation of PDE2 activity. The fluorescence polarization assay for cyclic nucleotide phosphodiesterases was performed using an IMAP® FP kit supplied by Molecular Devices, Sunnyvale, Calif. (product # R8139). […] Assays were performed at room temperature in 384-well microtiter plates with an incubation volume of 20.2 μL. Solutions of test compounds were prepared in DMSO and serially diluted with DMSO to yield 8 μL of each of 10 solutions differing by 3-fold in concentration, at 32 serial dilutions per plate. […] 0% of inhibition is determined by using DMSO (1% final concentrations).
A Labcyte Echo 555 (Labcyte, Sunnyvale, Calif.) is used to dispense 200 nL from each well of the titration plate to the 384 well assay plate. Ten microliters of a solution of enzyme (1/2000 final dilution from aliquots; sufficient to produce 20% substrate conversion) was added to the assay plate. Next 10 uL of a separate solution of the substrate FAM-labeled cAMP (50 nM final concentration product # R7506 from Molecular Devices) and the activator cGMP (1 uM final concentration), prepared in the assay buffer (10 mM Tris HCl, pH 7.2, 10 mM MgCl2, 0.05% NaN3 0.01% Tween-20, and 1 mM DTT) was added to the assay plate and shaken to mix. The reaction is allowed to proceed at room temperature for 60 minutes. A binding solution is then made from the kit components, comprised of 80% Solution A, 20% Solution B and binding reagent at a volume of 1/600 the total binding solution. The enzymatic reaction is stopped by addition of 60 μl, of the binding solution to each well of the assay plates and the plates are sealed and shaken for 30 seconds. The plate was incubated at room temperature for at least one hour prior to determining the fluorescence polarization (FP). The parallel and perpendicular fluorescence of each well of the plate was measured using a Tecan Genios Pro plate reader (Tecan, Switzerland) or Perkin Elmer EnVision™ plate reader (Waltham, Mass.). Fluorescence polarization (mP) was calculated from the parallel (S) and perpendicular (P) fluorescence of each sample well and the analogous values for the median control well, containing only substrate (So and Po), using the following equation: Polarization (mP)=1000*(S/So−P/Po)/(S/So+P/Po).

Row | Structure (SMILES) | Ki [nM]
1 | Cc1nc(-c2cnn(C(C)c3ccc(OC(F)F)cc3C)c2)cc(=O)[nH]1 (single isomer, unassigned) [Example 90, (S)- or (R)-6-(1-(1-(4-(difluoromethoxy)-2-methylphenyl)ethyl)-1H-pyrazol-4-yl)-2-methylpyrimidin-4(3H)-one] | 150
2 | COCc1ccc(C(C)n2cc(-c3cc(=O)[nH]c(C)n3)cn2)c(F)c1 (single isomer, unassigned) [Example 97, (R)- or (S)-6-(1-(1-(2-fluoro-4-(methoxymethyl)phenyl)ethyl)-1H-pyrazol-4-yl)-2-methylpyrimidin-4(3H)-one] | 464
3 | Cc1nc(-c2cnn(C(C)c3ccc(C(F)(F)F)cc3Cl)c2)cc(=O)[nH]1 (single isomer, unassigned) [Example 84, (S)- or (R)-6-(1-(1-(2-chloro-4-(trifluoromethyl)phenyl)ethyl)-1H-pyrazol-4-yl)-2-methylpyrimidin-4(3H)-one] | 179
4 | Cc1nc(-c2cnn(C(C)c3ccc(OC(F)F)cc3F)c2)cc(=O)[nH]1 (single isomer, unassigned) [Example 87, (R)- or (S)-6-(1-(1-(4-(difluoromethoxy)-2-fluorophenyl)ethyl)-1H-pyrazol-4-yl)-2-methylpyrimidin-4(3H)-one] | 480
5 | COCc1ccc(C(C)n2cc(-c3cc(=O)[nH]c(C)n3)cn2)c(F)c1 (single isomer, unassigned) [Example 98, (S)- or (R)-6-(1-(1-(2-fluoro-4-(methoxymethyl)phenyl)ethyl)-1H-pyrazol-4-yl)-2-methylpyrimidin-4(3H)-one] | > 2970
6 | COCc1ccc(C(C)n2cc(-c3cc(=O)[nH]c(C)n3)cn2)c(Cl)c1 (single isomer, unassigned) [Example 104, (S)- or (R)-6-(1-(1-(2-chloro-4-(methoxymethyl)phenyl)ethyl)-1H-pyrazol-4-yl)-2-methylpyrimidin-4(3H)-one] | > 2970
7 | Cc1nc(-c2cnn(C(C)c3ccc(C(F)(F)F)cc3C(F)(F)F)c2)cc(=O)[nH]1 (single isomer, unassigned) [Example 144, (R)- or (S)-6-(1-(1-(2,4-bis(trifluoromethyl)phenyl)ethyl)-1H-pyrazol-4-yl)-2-methylpyrimidin-4(3H)-one] | 397
8 | CCc1ccc(C(C)n2cc(-c3cc(=O)[nH]c(C)n3)cn2)c(Cl)c1 (single isomer, unassigned) [Example 100, (S)- or (R)-6-(1-(1-(2-chloro-4-ethylphenyl)ethyl)-1H-pyrazol-4-yl)-2-methylpyrimidin-4(3H)-one] | 384

The remaining lines, values ahead:

Row | Ki [nM] | Structure (SMILES)
9 | 212 | Cc1nc(-c2cnn(C(C)c3ccc(C4CC4)cc3F)c2)cc(=O)[nH]1 (single isomer, unassigned) [Example 92, (S)- or (R)-6-(1-(1-(4-cyclopropyl-2-fluorophenyl)ethyl)-1H-pyrazol-4-yl)-2-methylpyrimidin-4(3H)-one]
10 | 19300 | Cc1nc(-n2cc(CN3CCC(C(F)(F)F)CC3)cn2)cc(=O)[nH]1 [Example 32, 2-Methyl-6-(4-((4-(trifluoromethyl)piperidin-1-yl)methyl)-1H-pyrazol-1-yl)pyrimidin-4(3H)-one]
11 | 212 | CCc1ccc(C(C)n2cc(-c3cc(=O)[nH]c(C)n3)cn2)c(F)c1 (single isomer, unassigned) [Example 102, (S)- or (R)-6-(1-(1-(4-ethyl-2-fluorophenyl)ethyl)-1H-pyrazol-4-yl)-2-methylpyrimidin-4(3H)-one]
12 | 106 | COCc1ccc(C(C)n2cc(-c3cc(=O)[nH]c(C)n3)cn2)c(Cl)c1 (single isomer, unassigned) [Example 103, (R)- or (S)-6-(1-(1-(2-chloro-4-(methoxymethyl)phenyl)ethyl)-1H-pyrazol-4-yl)-2-methylpyrimidin-4(3H)-one]

Same assay, conditions: Lab B; read-out: Rhesus PDE2 Ki (nM) Lab B

Row | Structure (SMILES) | Ki [nM]
13 | Cc1nc(-n2cc(C(C)c3ccncc3)cn2)cc(=O)[nH]1 (centres unmarked) [Example 54, 2-methyl-6-[4-(1-pyridin-4-ylethyl)-1H-pyrazol-1-yl]pyrimidin-4(3H)-one] | 18200
14 | Cc1nc(-c2cnn(C(C)c3ccc(OC(F)(F)F)cc3F)c2)cc(=O)[nH]1 (single isomer, unassigned) [Example 58, (R)- or (S)-6-(1-(1-(2-fluoro-4-(trifluoromethoxy)phenyl)ethyl)-1H-pyrazol-4-yl)-2-methylpyrimidin-4(3H)-one] | 256
15 | Cc1nc(-c2cnn(C(C)c3ccc(F)cc3)c2)cc(=O)[nH]1 (centres unmarked) [Example 152, 6-(1-(1-(4-fluorophenyl)ethyl)-1H-pyrazol-4-yl)-2-methylpyrimidin-4(3H)-one] | 4130
16 | COc1cc(C(F)(F)F)ccc1[C@@H](C)n1cc(-c2cc(=O)[nH]c(C)n2)cn1 (single isomer, unassigned) [Example 1] | 301
17 | Cc1nc(-c2ccn(C(C)c3ccc(F)cc3)n2)cc(=O)[nH]1 (centres unmarked) [Example 161, 6-(1-(1-(4-fluorophenyl)ethyl)-1H-pyrazol-3-yl)-2-methylpyrimidin-4(3H)-one] | 13900

Continued, values first:

Row | Ki [nM] | Structure (SMILES)
18 | 18500 | Cc1nc(-c2ccn(C(C)c3ccccc3)n2)cc(=O)[nH]1 (centres unmarked) [Example 158, 2-methyl-6-(1-(1-phenylethyl)-1H-pyrazol-3-yl)pyrimidin-4(3H)-one]
19 | 1140 | Cc1nc(-c2cc([C@@H](C)c3ccc(C(F)(F)F)cc3)n(C)n2)cc(=O)[nH]1 (single isomer, unassigned) [Example 26]
20 | 3830 | COC(=O)c1ccc(C(C)n2cc(-c3cc(=O)[nH]c(C)n3)cn2)cc1 (centres unmarked) [Example 155, methyl 4-(1-(4-(2-methyl-6-oxo-1,6-dihydropyrimidin-4-yl)-1H-pyrazol-1-yl)ethyl)benzoate]
21 | 49300 | Cc1nc(-n2cc(CN3CCC(C(F)(F)F)CC3)cn2)cc(=O)[nH]1 [Example 32, 2-Methyl-6-(4-((4-(trifluoromethyl)piperidin-1-yl)methyl)-1H-pyrazol-1-yl)pyrimidin-4(3H)-one]
22 | 3680 | Cc1nc(-c2cc([C@@H](C)c3ccc(C(F)(F)F)cc3)n(C)n2)cc(=O)[nH]1 (single isomer, unassigned) [Example 25]
23 | 15900 | Cc1nc(-c2ccnn2C(C)c2ccc(OC(F)(F)F)cc2)cc(=O)[nH]1 (centres unmarked) [Example 76, 2-methyl-6-(1-(1-(4-(trifluoromethoxy)phenyl)ethyl)-1H-pyrazol-5-yl)pyrimidin-4(3H)-one]
